Here are results for 1 compound from patent publication US20250268894A1, “MACROCYCLE COMPOUNDS FOR THE TREATMENT OF CANCER” (Hoffmann-La Roche Inc., priority 2022, published 2025).

pIC50: −log10 of the molar value. A value given as a limit tells only on which side of the number the result lay.

Data set [1] has as its system Miapaca-2 KRAS G12C + R68S cells. Put plainly: Stable KRAS mutant cell line viability assay (CellTiter-Glo), G12C + R68S. It is filed as cell-based. To be noted: Homo sapiens, MIA PaCa-2, 72 h, Miapaca-2 mutant cells, 3 d. The text has this:
(§1) The aim of the study was to determine the potency and efficacy of compounds for cell proliferation using CellTiter-Glo® (CTG) Luminescent Cell Viability Assay (Promega Corp., Madison, WI). We cloned […] KRAS^G12C variant sequences with secondary mutations (V8A, V9Y, S17E, T58I, A59T, S65W, R68S, D69P, M72I, D92R, H95N, Y96D, Q99F, Q99W, Y96H, and F156L) into the Miapaca-2. Totally 14 stable Miapaca-2 mutant cell lines were established through lentivirus infection. For the cell viability assay, cells were dosed with compounds in a 9-point dose-response using a 4 fold dilution series at a top dose of 10 μM. KRAS mutant cells were maintained in DMEM+10% FBS+2.5% HI Horse serum+1% PS+1 μg/mL Puromycin and seeded into 96-well plates at 800-1,500 cells per well 24 h before compound addition and then incubated with compound for 3 d before assaying viability (CellTiter-Glo, Promega). Assays were performed in biological duplicates. Nonlinear regression curves were fitted using Xfit. IC50 (absolute IC50) is the dose at which the estimated viability is 50% relative to untreated wells.
On the technique in general: ATP-based viability assays read luminescence as a measure of living cells.

Data set [2] has as its system Miapaca-2 KRAS G12C + M72I cells. Put plainly: Stable KRAS mutant cell line viability assay (CellTiter-Glo), G12C + M72I. Conditions: Homo sapiens, MIA PaCa-2, 72 h, Miapaca-2 mutant cells, 3 d. It is filed as cell-based.
Description: as §1

The test system of data set [3] is Miapaca-2 KRAS G12C + Y96D cells. Kind of data set: Stable KRAS mutant cell line viability assay (CellTiter-Glo), G12C + Y96D. The class given is cell-based. To be noted: Homo sapiens, MIA PaCa-2, 72 h, Miapaca-2 mutant cells, 3 d.
Description: as §1

The test system of data set [4] is Miapaca-2 KRAS G12C + Q99W cells. Kind of data set: Stable KRAS mutant cell line viability assay (CellTiter-Glo), G12C + Q99W. To be noted: Homo sapiens, MIA PaCa-2, 72 h, Miapaca-2 mutant cells, 3 d. The class given is cell-based.
Description: as §1

In data set [5] the test system is human hepatocytes. Kind of data set: Human hepatocyte stability assay. The class given is in vitro ADME. To be noted: 1 μM compound, human hepatocyte suspension 1×10^6 cells/mL. The protocol:
The hepatocyte stability assay measures the rate of disappearance of a compound from incubations with cryopreserved suspension hepatocytes from human. Positive controls, including Midazolam, Raloxifene and Dextromethorphan, are included in every experiment. Incubations consist of 1 μM tested compound and suspension of human hepatocytes (1×10^6 cells/mL) in supplemented Williams' E Medium with 10% FBS and 0.5% Penicillin-streptomycin. The hepatocyte suspension was incubated with intermittent shaking 900 rpm at 37° C., in a 5% CO2 incubator. The reaction was stopped by adding methanol containing internal standard (2 μM Tolbutamide) at 2, 10, 20, 40, 60 and 120 minutes after compound addition, depletion of the parent compound was monitored by LC-MS/MS analysis.

For data set [6], the system named is NCI-H358 cells (KRAS G12C). Kind of data set: Cell viability assay (Cell Counting Kit-8), KRAS G12C. The class given is cell-based. To be noted: Homo sapiens, NCI-H358, 72 hrs. The method, boiled down: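 Cells seeded overnight at 5,000/well (NCI-H358) or 2,000/well (AGS, SW620), then exposed to compound for 72 hrs at 0.5% DMSO final. CCK-8 read as OD450 minus OD650 after 2 hrs; IC50 from 4-parameter sigmoidal fit.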
For orientation: Tetrazolium assays rely on reduction of a dye to a coloured formazan, in cell work by metabolically active cells.

Turning to `CO[C@@H](C)c1ncc(N2CCN(CC(F)(F)F)CC2)cc1-c1c2c3cc(ccc3n1CC(F)(F)F)-c1csc(n1)C[C@H](NC(=O)[C@H](C(C)C)N(C)C(=O)N1CCOCC1)C(=O)N1CCC[C@H](N1)C(=O)OCC(C)(C)C2` (atropisomer, axis not shown; (M)) [Example 6], the pIC50 – broadly, the negative decadic logarithm of the IC50, by convention in mol/L – in data set [1] is 7.47; in data set [2] it was 8.52; in data set [3] it was 8.15; in data set [4] it was 8.15; in data set [6], 8.30. Besides, the “CL_hep (Human)” value in data set [5] is below 2.4 mL/min/kg.
